Patent US20250009841A1, “Methods of Diagnosing and Managing Bleeding Disorders” (Emory University, priority 2023, published 2025)

B1: abciximab (antibody, chains of the INN, looked up, V domains shown)
VH: EVQLQQSGTVLARPGASVKMSCEASGYTFTNYWMHWVKQRPGQGLEWIGAIYPGNSDTSYIQKFKGKAKLTAVTSTTSVYMELSSLTNEDSAVYYCTLYDGYYVFAYWGQGTLVTVSA
VL: EIVLTQSPVTLSVTPGDSVSLSCRASRDISNNLHWFQQTSHESPRLLIKYASQSMSGIPSRFSGSGSGTDFTLSINSVETEDFGMYFCQQTNSWPYTFGGGTKLEIK

System: healthy donor platelets
Assay: Monoclonal antibody contraction experiments on the platelet contraction cytometer
Type: cell-based, human
Settings: 2.5 μg/mL monoclonal antibody
Description: Blood was drawn into acid-citrate-dextrose (ACD) solution 2 (VWR) and was subsequently centrifuged at 150 G for 15 min without brake and the resulting platelet rich plasma (PRP) was centrifuged again with an additional 10% ACD by volume at 900 G for 5 min without brake. The supernatant, platelet poor plasma, was discarded or utilized to isolate patient polyclonal IgG antibodies. The platelet pellet was resuspended into HEPES modified buffer and was gel filtered into this same buffer using a gel filtration column. Platelets were then diluted to 2 million/mL prior to contraction cytometry to reduce paracrine signaling and minimize platelet aggregate formation.
Each contraction cytometer contains large arrays of fibrinogen microdots pairs that are patterned onto a polyacrylamide hydrogel with a stiffness of about 75 k Pa. […] These values for microdot size and spacing ensured that platelets preferentially attached to the microdots and were able to spread to neighboring microdot in the microdot pair and contract. […]
Platelet contraction was imaged on a confocal microscope using a 20×/0.8 NA lens. […] Images were analyzed using a script which calculated the center-to-center distance between fibrinogen microdots. […] Traction forces (T) of individual platelets were calculated as: T=2πGa (xs−xf)/2−v. […]

Molecule | effect on platelet contractile force (15 minutes prior to thrombin activation) | effect on platelet adhesion (fibrinogen microdots)
PAC-1 | lowers contractile forces | 
B1 |  | blocks adhesion
